How the values were obtained:
Assay type in all cases: cell-based, human
HUVECs [1] = test: HUVEC apoptosis assays (Annexin V-FITC/PI flow cytometry, cleaved caspase-3, DNA fragmentation); details: ad-null infected HUVECs, TNFα 20 ng/ml 24 hours
Procedure: In FIG. 23A ad-null or ad-BRCA1 infected HUVECs were treated with TNFα (20 ng/ml) for 24 hours. Cells were harvested for Annexin V-FITC and Propidium Iodide staining followed by flow cytometry. Total apoptotic cells are shown as mean±SD (n=3 in triplicate, **p<0.01). In FIG. 23B, HUVECs were treated with either siBRCA1 (10 nM) or scrambled siRNA (10 nM) for 24 hours. BRCA1-silenced and control HUVECs were treated with TNFα (20 ng/ml), stained with Annexin V-FITC and Propidium Iodide, and analyzed by flow cytometry. The percentage of total apoptotic cells are presented as mean±SD (n=3 in triplicate, **p<0.01). […] Data was calculated as the percentage of total apoptotic cells and presented as mean±SD (n=3 in triplicate, **p<0.01).
FIG. 31 is a bar graph showing protection of HUVECs against doxorubicin-induced apoptosis by BRCA1 overexpression. […] Data was calculated as the percentage of total apoptotic cells and presented as mean±SD (n=3 in triplicate, *p<0.01 vs. Ad-null group, †p<0.01 vs. Ad-null+2 μM Dox group). […]
Human umbilical vein endothelial cells (HUVECs) were purchased from Cambrex and cultured in MCDB-131 complete medium (Cambrex Corporation). […] These concentrations were determined from pilot optimization studies. […]
Apoptotic and necrotic cell death were assessed in ad-BRCA1 and ad-null infected HUVECs by flow cytometry coupled with the BD Annexin V-FITC Apoptosis Detection Kit. […]

HUVECs [2] = test: HUVEC migration assay; details: TNFα 20 ng/ml
Procedure: In FIG. 24A ad-null or ad-BRCA1 infected cells were trypsinized and seeded in the presence and absence of TNFα (20 ng/ml) on coated inserts and a colorimetric assay was performed after 24 hours. Migration was calculated as a percentage of ad-null controls. (n=4, **p<0.01). In FIG. 24B, ad-null or ad-BRCA1 infected HUVECs were seeded onto matrigel in the presence or absence of TNFα (20 ng/ml). Images were taken 5 hours after seeding (original magnification 20×). In FIG. 24C data was semi-quantitatively analyzed by counting tubular structures in four fields per group. Data is presented as mean±SD (n=3 in triplicate, *p<0.05, **p<0.01). HUVECs infected with ad-null or ad-BRCA1 were treated for 24 hours with TNFα (20 ng/ml). VCAM1 (FIG. 24D, FIG. 24E), ICAM1 (FIG. 24F, FIG. 24G) and E-selectin (FIG. 24H, FIG. 24I) protein and transcript expression were determined in cell extracts via western blots and real-time PCR, respectively. […] Data are expressed as mean±SD (n=3, **p<0.01).
The migratory function of HUVECs was determined with the CytoSelect™ 24-Well Cell Migration Fluorometric Assay (Cell Biolabs). […] Following 12 hours at 37° C., migratory cells were dissociated from the underside of the insert membrane, lysed and stained with the Lysis Buffer/CyQuant® GR dye solution before being fluorescently quantified. […]

GADD45, p21 and p53 = test: Western blot of GADD45, p21 and p53 in HUVECs; details: TNFα
Procedure: In FIG. 25A cell cycle progression was assessed after adenoviral (ad-null or ad-BRCA1) infection of HUVECs and 24 hours of TNFα (20 ng/ml) treatment followed by Propidium Iodide staining coupled with flow cytometry. […] GAPDH was used as a loading control.
Western blot analysis was performed according to standard procedures. Proteins from whole cell lysates of HUVECs were resolved on SDS-polyacrylamide gels and transferred to nitrocellulose membranes (Bio-Rad). Membranes were probed with primary antibodies from Santa Cruz (BRCA1), Cell Signaling (p53, p21, Ser1177-phospho-eNOS, Akt, Ser473-phospho-Akt, cleaved caspase-3), Chemicon (GADD45a, GAPDH) and BD (eNOS). Immunoblots were incubated with the appropriate horseradish peroxidase-associated secondary antibodies before signals were visualized by chemiluminescence via the ECL detection system (GE Healthcare).

TNFα
apoptosis (HUVECs [1]): significant apoptosis | migratory capacity of HUVECs (HUVECs [2]): significantly hampered | protein levels of p53 and GADD45 (GADD45, p21 and p53): no influence | p21 protein levels (GADD45, p21 and p53; in the presence and absence of BRCA1 overexpression): significantly elevate
